Among the data in article PMC6934184, “Selective DNA-PKcs inhibition extends the therapeutic index of localized radiotherapy and chemotherapy” (The Journal of Clinical Investigation, 2019) are inhibition values, retold here.

Structures are written as SMILES.

This assay concerns the target T1, SRC (Homo sapiens, UniProt P12931).
T1 construct: purchased Thermo Fisher Scientific (Life Technologies) SelectScreen
Briefly: SelectScreen Z'LYTE. The assay is classed as biochemical. Summed up: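 Percent values come from Thermo SelectScreen profiling of NU5455, combining activity and binding assays. CSF1R was run in Z'LYTE format at Km app ATP, and CAMK1 in Adapta format with ATP listed at 10.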

T1 sequence (P12931 whole entry): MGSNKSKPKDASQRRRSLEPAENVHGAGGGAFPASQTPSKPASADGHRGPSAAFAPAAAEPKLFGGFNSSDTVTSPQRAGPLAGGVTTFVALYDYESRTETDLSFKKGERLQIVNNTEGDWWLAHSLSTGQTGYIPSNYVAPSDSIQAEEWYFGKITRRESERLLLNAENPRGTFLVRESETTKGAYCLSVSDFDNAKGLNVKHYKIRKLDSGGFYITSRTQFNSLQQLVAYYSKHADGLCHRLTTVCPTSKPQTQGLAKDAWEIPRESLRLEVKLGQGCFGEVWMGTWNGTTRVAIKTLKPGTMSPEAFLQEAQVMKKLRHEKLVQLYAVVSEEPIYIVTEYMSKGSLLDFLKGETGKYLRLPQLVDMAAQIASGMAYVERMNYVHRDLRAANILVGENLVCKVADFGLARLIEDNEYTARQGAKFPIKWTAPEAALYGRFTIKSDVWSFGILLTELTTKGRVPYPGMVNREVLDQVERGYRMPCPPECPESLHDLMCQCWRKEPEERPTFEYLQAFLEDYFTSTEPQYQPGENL

As for `CN(C(=O)CN1CCOCC1)c1ccc2sc3c(-c4cccc5c(=O)cc(N6CC7CCC(C6)O7)oc45)cccc3c2c1` [NU5455], at 1 µM the inhibition was 9.5%.
